According to US20090005363A1, “Organic Compounds” (priority 2005, published 2009):

biological target: mGluR5 (Homo sapiens, UniProt P41594); assay: inhibition of the glutamate induced elevation of intracellular Ca2+ concentration; details: read-out: mGluR5 Activity inh. at 10 μM [%]
Sequence (P41594 21-1180 isoform P41594-2 limits assumed): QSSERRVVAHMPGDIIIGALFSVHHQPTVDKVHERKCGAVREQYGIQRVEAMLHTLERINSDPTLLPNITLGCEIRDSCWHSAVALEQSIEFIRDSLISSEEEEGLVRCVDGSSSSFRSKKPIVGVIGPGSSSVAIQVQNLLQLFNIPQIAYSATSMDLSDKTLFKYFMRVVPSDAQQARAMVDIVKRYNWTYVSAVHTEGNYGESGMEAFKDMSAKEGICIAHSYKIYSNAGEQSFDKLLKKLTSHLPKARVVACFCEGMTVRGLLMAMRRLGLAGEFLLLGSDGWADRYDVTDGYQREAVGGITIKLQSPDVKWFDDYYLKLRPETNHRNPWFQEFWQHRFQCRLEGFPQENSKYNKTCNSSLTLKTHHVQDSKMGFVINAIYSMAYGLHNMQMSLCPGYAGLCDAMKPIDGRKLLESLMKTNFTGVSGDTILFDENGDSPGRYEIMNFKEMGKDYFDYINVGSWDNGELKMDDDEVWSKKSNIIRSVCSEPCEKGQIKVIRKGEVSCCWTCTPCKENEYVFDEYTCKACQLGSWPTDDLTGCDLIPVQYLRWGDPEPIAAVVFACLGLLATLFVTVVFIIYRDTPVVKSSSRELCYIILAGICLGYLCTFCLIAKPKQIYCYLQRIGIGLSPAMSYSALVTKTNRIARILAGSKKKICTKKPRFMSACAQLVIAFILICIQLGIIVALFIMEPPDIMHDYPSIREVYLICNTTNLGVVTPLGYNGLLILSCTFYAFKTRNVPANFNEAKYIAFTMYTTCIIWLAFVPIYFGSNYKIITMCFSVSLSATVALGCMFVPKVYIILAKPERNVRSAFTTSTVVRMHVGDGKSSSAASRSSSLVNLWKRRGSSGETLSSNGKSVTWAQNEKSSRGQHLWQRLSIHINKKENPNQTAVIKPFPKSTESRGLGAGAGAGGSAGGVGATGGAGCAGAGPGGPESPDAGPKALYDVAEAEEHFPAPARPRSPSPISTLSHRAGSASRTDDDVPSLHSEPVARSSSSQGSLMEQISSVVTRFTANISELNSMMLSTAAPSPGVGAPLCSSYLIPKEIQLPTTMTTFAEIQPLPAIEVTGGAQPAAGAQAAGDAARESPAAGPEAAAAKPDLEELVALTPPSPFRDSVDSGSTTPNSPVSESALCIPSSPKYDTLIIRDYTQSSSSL
Description: This can be determined in vitro for example at recombinant human metabotropic glutamate receptors, especially PLC-coupled subtypes thereof such as mGluR5, using different procedures like, for example, measurement of the inhibition of the agonist induced elevation of intracellular Ca^2+ concentration in accordance with L. P. Daggett et al., Neuropharm.

SMILES	inhibition at 10 µM [%]
Cc1ccc(Nc2ncc(C(=O)N3CCCCC3CCO)cc2Cl)cn1 (centres unmarked) [Compound 4.61, [5-Chloro-6(6-methyl-pyridin-3-ylamino)-pyridin-3-yl]-[2-(2-hydroxy-ethyl)-piperidin-1-yl]-methanone]	79
CCCC1CCC(F)CN1C(=O)c1cnc(Nc2ccc(C)nc2)c(Cl)c1 (centres unmarked) [Compound 4.62, [5-Chloro-6-(6-methyl-pyridin-3-ylamino)-pyridin-3-yl]-(5-fluoro-2-propyl-piperidin-1-yl)-methanone]	99
Cc1ccc(Nc2ncc(C(=O)N3CCCCC3C(F)C(C)F)cc2Cl)cn1 (centres unmarked) [Compound 4.63, [5-Chloro-6-(6-methyl-pyridin-3-ylamino)-pyridin-3-yl]-[2-(1,2-difluoro-propyl)-piperidin-1-yl]-methanone]	100
Cc1ccc(Nc2ncc(C(=O)N3CCCCC3CC(C)F)cc2Cl)cn1 (centres unmarked) [Compound 4.64, [5-Chloro-6-(6-methyl-pyridin-3-ylamino)-pyridin-3-yl]-[2-(2-fluoro-propyl)-piperidin-1-yl]-methanone]	99
CCC1OCCCCN1C(=O)c1cnc(Nc2ccc(C)nc2)c(Cl)c1 (centres unmarked) [Compound 4.65, [5-Chloro-6-(6-methyl-pyridin-3-ylamino)-pyridin-3-yl]-(2-ethyl-[1,3]oxazepan-3-yl)-methanone]	83
CCCC1OCCCCN1C(=O)c1cnc(Nc2ccc(C)nc2)c(Cl)c1 (centres unmarked) [Compound 4.66, [5-Chloro-6-(6-methyl-pyridin-3-ylamino)-pyridin-3-yl]-(2-propyl-[1,3]oxazepan-3-yl)-methanone]	91
CCC(CC)C1OCCCCN1C(=O)c1cnc(Nc2ccc(C)nc2)c(Cl)c1 (centres unmarked) [Compound 4.67, [5-Chloro-6-(6-methyl-pyridin-3-ylamino)-pyridin-3-yl]-[2-(1-ethyl-propyl)-[1,3]oxazepan-3-yl]-methanone]	95
CCCC1OCCCN1C(=O)c1cnc(Nc2ccc(C)nc2)c(Cl)c1 (centres unmarked) [Compound 4.68, [5-Chloro-6-(6-methyl-pyridin-3-ylamino)-pyridin-3-yl]-(2-propyl-[1,3]oxazinan-3-yl)-methanone]	99
CCC(CC)C1OCCCN1C(=O)c1cnc(Nc2ccc(C)nc2)c(Cl)c1 (centres unmarked) [Compound 4.69, [5-Chloro-6-(6-methyl-pyridin-3-ylamino)-pyridin-3-yl]-[2-(1-ethyl-propyl)-[1,3]oxazinan-3-yl]-methanone]	99
CCCCC1OCCCN1C(=O)c1cnc(Nc2ccc(C)nc2)c(Cl)c1 (centres unmarked) [Compound 4.70, (2-Butyl-[1,3]oxazinan-3-yl)-[5-chloro-6-(6-methyl-pyridin-3-ylamino)-pyridin-3-yl]-methanone]	96
COCCC1CCCCN1C(=O)c1cnc(Nc2ccc(C)nc2)c(Cl)c1 (centres unmarked) [Compound 4.71, [5-Chloro-6-(6-methyl-pyridin-3-ylamino)-pyridin-3-yl]-[2-(2-methoxy-ethyl)-piperidin-1-yl]-methanone]	99
Cc1ccc(Nc2ncc(C(=O)N3CCCC3c3ccccc3)cc2Cl)cn1 (centres unmarked) [Compound 4.72, [5-Chloro-6-(6-methyl-pyridin-3-ylamino)-pyridin-3-yl]-(2-phenyl-pyrrolidin-1-yl)-methanone]	97
Cc1ccc(Nc2ncc(C(=O)N3CCCC3c3ccccn3)cc2Cl)cn1 (centres unmarked) [Compound 4.73, [5-Chloro-6-(6-methyl-pyridin-3-ylamino)-pyridin-3-yl]-(2-pyridin-2-yl-pyrrolidin-1-yl)-methanone]	72
CCO[C@@H]1CCCN1C(=O)c1cnc(Nc2ccc(C)nc2)c(Cl)c1 [Compound 4.74, [5-Chloro-6-(6-methyl-pyridin-3-ylamino)-pyridin-3-yl]-((R)-2-ethoxy-pyrrolidin-1-yl)-methanone]	92
Cc1ccc(Nc2ncc(C(=O)N3CCCC3c3ccc(C)s3)cc2Cl)cn1 (centres unmarked) [Compound 4.75, [5-Chloro-6-(6-methyl-pyridin-3-ylamino)-pyridin-3-yl]-[2-(5-methyl-thiophen-2-yl)-pyrrolidin-1-yl]-methanone]	96
CCCC1CCCCCN1C(=O)c1cnc(Nc2ccc(C)nc2)c(Cl)c1 (centres unmarked) [Compound 4.76, [5-Chloro-6-(6-methyl-pyridin-3-ylamino)-pyridin-3-yl]-(2-propyl-azepan-1-yl)-methanone]	92
CCCC1COCCN1C(=O)c1cnc(Nc2ccc(C)nc2)c(Cl)c1 (centres unmarked) [Compound 4.77, [5-Chloro-6-(6-methyl-pyridin-3-ylamino)-pyridin-3-yl]-(3-propyl-morpholin-4-yl)-methanone]	100
O=C(c1cnc(Nc2ccc(Cl)cc2)c(Cl)c1)N1CCCCCC1 [Compound 5.1, Azepan-1-yl-[5-chloro-6-(4-chloro-phenylamino)-pyridin-3-yl]-methanone]	98
O=C(c1cnc(Nc2ccc(Cl)cc2)nc1)N1CCCCCC1 [Compound 5.3, Azepan-1-yl-[2-(4-chloro-phenylamino)-pyrimidin-5-yl]-methanone]	87
O=C(c1cnc(Nc2ccc(Cl)cc2)nc1)N1CCCCC1 [Compound 5.4, [2-(4-Chloro-phenylamino)-pyrimidin-5-yl]-piperidin-1-yl-methanone]	83
COc1cc(C(=O)N2CCCCCC2)cnc1Nc1ccc(Cl)cc1 [Compound 6.1, Azepan-1-yl-[6-(4-chloro-phenylamino)-5-methoxy-pyridin-3-yl]-methanone]	97
COc1cc(C(=O)N2CCCCC2)cnc1Nc1ccc(Cl)cc1 [Compound 6.3, [6-(4-Chloro-phenylamino)-5-methoxy-pyridin-3-yl]-piperidin-1-yl-methanone]	95
COc1cc(C(=O)N2CCCCC2)cnc1Nc1ccc(C)nc1 [Compound 6.4, [5-Methoxy-6-(6-methyl-pyridin-3-ylamino)-pyridin-3-yl]-piperidin-1-yl-methanone]	98
CCOc1cc(C(=O)N2CCCCCC2)cnc1Nc1ccc(Cl)cc1 [Compound 6.5, Azepan-1-yl-[6-(4-chloro-phenylamino)-5-ethoxy-pyridin-3-yl]-methanone]	33
CCOc1cc(C(=O)N2CCCCCC2)cnc1Nc1ccc(C)nc1 [Compound 6.6, Azepan-1-yl-[5-ethoxy-6-(6-methyl-pyridin-3-ylamino)-pyridin-3-yl]-methanone]	54
CCOc1cc(C(=O)N2CCCCC2)cnc1Nc1ccc(C)nc1 [Compound 6.7, [5-Ethoxy-6-(6-methyl-pyridin-3-ylamino)-pyridin-3-yl]-piperidin-1-yl-methanone]	35
CC1CCCN(C(=O)c2cnc(Nc3ccc(Cl)nc3)c(Cl)c2)C1 (centres unmarked) [Compound 7.1, [5-Chloro-6-(6-chloro-pyridin-3-ylamino)-pyridin-3-yl]-(3-methyl-piperidin-1-yl)-methanone]	98
O=C(c1ccc(Nc2ccc(Cl)cc2)nn1)N1CCCCC1 [Compound 8.1, [6-(4-Chloro-phenylamino)-pyridazin-3-yl]-piperidin-1-yl-methanone]	91
CC1(C)CCCN(C(=O)c2ccc(Nc3ccc(Cl)cc3)nn2)C1 [Compound 8.3, [6-(4-Chloro-phenylamino)-pyridazin-3-yl]-(3,3-dimethyl-piperidin-1-yl)-methanone]	82
